Laboratory results: US6664214B1, “Uracil compounds and use thereof” (Sumitomo Chemical Company, Limited, priority 1999, dated 2003)

How the values were obtained:
Parameters in all cases: key: 0: little difference in the degree of germination or growth between the treated plants and the untreated plants at the time of examination; 10: the treated plants died completely or their germination or growth was completely inhibited
large crabgrass = assay: Test Example 5: foliar treatment on upland field (Table 6); type: in vivo, Digitaria sanguinalis; conditions: 125 g/ha, 19 days after application, index 0 to 10
Description: In the examples, the compounds are identified by the Compound Numbers as in Tables 1 to 3. […] A pot for plug seedlings seeded with large crabgrass. The test plant was grown in a greenhouse for 14 days, then transplanted into a plastic pot having an area of 17×12 cm^2 and a depth of 7 cm, and further the test plants were grown in the greenhouse for 8 days. Then each of compounds listed below was formulated into an emulsifiable concentrate according to Formulation Example 2 and then diluted to the prescribed amount with water containing a spreading agent and the dilution was uniformly sprayed over the foliage of the test plants with sprayer at a rate of 1000 liters per hectare. After the application, the test plants were grown in the greenhouse for 19 days, and the herbicidal activity were determined.

barnyardgrass [1] = assay: Test Example 3: foliar treatment on upland field (Table 4); type: in vivo, Echinochloa crus-galli; conditions: 125 g/ha active ingredient, examined 16 days after application, index 0-10
Description: (§1) In the examples, the compounds are identified by the Compound Numbers as in Tables 1 to 3. […] A cylindrical plastic pot having a diameter of 10 cm and a depth of 10 cm was filled with soil and seeded with ivyleaf momingglory, velvetleaf and barnyardgrass. These test plants were grown in a greenhouse for 10 days. Then each of compounds listed below was formulated into an emulsifiable concentrate according to Formulation Example 2 and then diluted to the prescribed amount with water containing a spreading agent and the dilution was uniformly sprayed over the foliage of the test plants with sprayer at a rate of 1000 liters per hectare. After the application, the test plants were grown in the greenhouse for 16 days, and the herbicidal activity were determined.

ivyleaf morningglory [2] = assay: as above; type: in vivo, Ipomoea hederacea; conditions: 125 g/ha active ingredient, examined 16 days after application, index 0-10
Description: as §1

barnyardgrass [3] = assay: Test Example 4: soil surface treatment on upland field (Table 5); type: in vivo, Echinochloa crus-galli; conditions: 500 g/ha active ingredient, examined 12 days after application, index 0-10
Excerpt: (§2) In the examples, the compounds are identified by the Compound Numbers as in Tables 1 to 3. […] A cylindrical plastic pot having a diameter of 10 cm and a depth of 10 cm was filled with soil and seeded ivyleaf morningglory, velvetleaf and barnyardgrass. Then each of compounds listed below was formulated into an emulsifiable concentrate according to Formulation Example 2 and then diluted to the prescribed amount with water and dilution was uniformly sprayed over the surface of the soil with sprayer at the rate of 1000 liters per hectare. After the application, the test plants were grown in a greenhouse for 12 days, and the herbicidal activity was examined.

ivyleaf morningglory [4] = assay: as above; type: in vivo, Ipomoea hederacea; conditions: 500 g/ha active ingredient, examined 12 days after application, index 0-10
Excerpt: as §2

velvetleaf [5] = assay: Test Example 3: foliar treatment on upland field (Table 4); type: in vivo, Abutilon theophrasti; conditions: 125 g/ha active ingredient, examined 16 days after application, index 0-10
Description: as §1

velvetleaf [6] = assay: Test Example 4: soil surface treatment on upland field (Table 5); type: in vivo, Abutilon theophrasti; conditions: 500 g/ha active ingredient, examined 12 days after application, index 0-10
Excerpt: as §2

Row | SMILES | Herbicidal effect Large crabgrass (large crabgrass) | Herbicidal effect Barnyardgrass (barnyardgrass [1]) | Herbicidal effect Ivyleaf morningglory (ivyleaf morningglory [2]) | Herbicidal effect Barnyardgrass (barnyardgrass [3]) | Herbicidal effect Ivyleaf morningglory (ivyleaf morningglory [4]) | Herbicidal effect Velvetleaf (velvetleaf [5]) | Herbicidal effect Velvetleaf (velvetleaf [6])
1 | CCOC(=O)C(C)Oc1ccc(COc2cc(-n3c(=O)cc(C(F)(F)F)n(C)c3=O)c(F)cc2Cl)cc1 (stereo not shown) [Compound 1-2, Ethyl 2-[4-({2-chloro-4-fluoro-5-[3-methyl-2,6-dioxo-4-(trifluoromethyl)-1,2,3,6-tetrahydropyrimidine-1-yl]phenoxy}methyl)phenoxy]propionate] | 10 | 10 | 10 | 10 | 10 | 10 | 10
2 | COC(=O)C(C)Oc1ccc(C(C)Oc2cc(-n3c(=O)cc(C(F)(F)F)n(C)c3=O)c(F)cc2Cl)cc1 (stereo not shown) [Compound 1-21, Methyl 2-[4-(1-{2-chloro-4-fluoro-5-[3-methyl-2,6-dioxo-4-(trifluoromethyl)-1,2,3,6-tetrahydropyrimidine-1-yl]phenoxy}ethyl)phenoxy]propionate] | 10 | 10 | 10 | 10 | 10 | 10 | 10
3 | CCOC(=O)C(C)Oc1ccc(COc2cc(-n3c(=O)cc(C(F)(F)F)n(C)c3=O)c(F)cc2Cl)cc1Cl (stereo not shown) [Compound 1-42, Ethyl 2-[2-chloro-4-({2-chloro-4-fluoro-5-[3-methyl-2,6-dioxo-4-(trifluoromethyl)-1,2,3,6-tetrahydropyrimidine-1-yl]phenoxy}methyl)phenoxy]propionate] | 10 | 10 | 10 | 8 | 10 | 10 | 10
4 | COC(=O)C(C)Oc1ccc(COc2cc(-n3c(=O)cc(C(F)(F)F)n(C)c3=O)c(F)cc2Cl)cc1OC (stereo not shown) [Compound 1-61, Methyl 2-[4-({2-chloro-4-fluoro-5-[3-methyl-2,6-dioxo-4-(trifluoromethyl)-1,2,3,6-tetrahydropyrimidine-1-yl]phenoxy}methyl)-2-methoxyphenoxy]propionate] | 10 | 10 | 10 | 10 | 10 | 10 | 10
5 | COC(=O)C(C)Oc1ccc(COc2cc(-n3c(=O)cc(C(F)(F)F)n(C)c3=O)c(F)cc2Cl)cc1C (stereo not shown) [Compound 1-101, Methyl 2-[4-({2-chloro-4-fluoro-5-[3-methyl-2,6-dioxo-4-(trifluoromethyl)-1,2,3,6-tetrahydropyrimidine-1-yl]phenoxy}methyl)-2-methylphenoxy]propionate] | 10 | 10 | 10 | 10 | 10 | 10 | 10
6 | COC(=O)C(C)Oc1c(Br)cc(COc2cc(-n3c(=O)cc(C(F)(F)F)n(C)c3=O)c(F)cc2Cl)cc1OC (stereo not shown) [Compound 1-161, Methyl 2-[2-bromo-4-({2-chloro-4-fluoro-5-[3-methyl-2,6-dioxo-4-(trifluoromethyl)-1,2,3,6-tetrahydropyrimidine-1-yl]phenoxy}methyl)-6-methoxyphenoxy]propionate] | 10 | 8 | 10 | 4 | 7 | 10 | 10
7 | CCC(Oc1cc(-n2c(=O)cc(C(F)(F)F)n(C)c2=O)c(F)cc1Cl)c1ccc(OC(C)C(=O)OC)cc1 (stereo not shown) [Compound 1-213, Methyl 2-[4-(1-{2-chloro-4-fluoro-5-[3-methyl-2,6-dioxo-4-(trifluoromethyl)-1,2,3,6-tetrahydropyrimidine-1-yl]phenoxy}propyl)phenoxy]propionate] | 10 | 10 | 10 | 10 | 10 | 10 | 10
8 | COC(=O)C(C)Oc1ccc(C(C#N)Oc2cc(-n3c(=O)cc(C(F)(F)F)n(C)c3=O)c(F)cc2Cl)cc1 (stereo not shown) [Compound 1-226, Methyl 2-{4-[{2-chloro-4-fluoro-5-[3-methyl-2,6-dioxo-4-(trifluoromethyl)-1,2,3,6-tetrahydropyrimidine-1-yl]phenoxy}(cyano)methyl]phenoxy}propionate] | 10 | 10 | 10 | 9 | 10 | 10 | 10
9 | COC(=O)C(C)Oc1c(OC)cc(COc2cc(-n3c(=O)cc(C(F)(F)F)n(C)c3=O)c(F)cc2Cl)cc1OC (stereo not shown) [Compound 1-238, Methyl 2-[4-({2-chloro-4-fluoro-5-[3-methyl-2,6-dioxo-4-(trifluoromethyl)-1,2,3,6-tetrahydropyrimidine-1-yl]phenoxy}methyl)-2,6-dimethoxyphenoxy]propionate] | 10 | 9 | 10 | 8 | 10 | 10 | 10
10 | COC(=O)C(C)Oc1ccc(COc2cc(-n3c(=O)cc(C(F)(F)F)n(C)c3=O)c(F)cc2Cl)c(F)c1 (stereo not shown) [Compound 1-242, Methyl 2-[4-({2-chloro-4-fluoro-5-[3-methyl-2,6-dioxo-4-(trifluoromethyl)-1,2,3,6-tetrahydropyrimidine-1-yl]phenoxy}methyl)-3-fluorophenoxy]propionate] | 10 | 10 | 10 | 10 | 10 | 10 | 10
